Organism: Rattus norvegicus
Test: DrugMatrix - Regimen: Daily Repeat
Type: toxicity, organism-based, Sprague-Dawley
Set-up: regimen Daily Repeat, gender Male, age 6-8 weeks
Settings: in vivo, po, route oral GAVAGE, […]; for ABSOLUTE BASOPHIL / ABSOLUTE EOSINOPHIL / ABSOLUTE LYMPHOCYTE / ABSOLUTE MONOCYTE / ABSOLUTE SEGMENTED NEUTROPHIL / BASOPHIL / EOSINOPHIL / ERYTHROCYTE COUNT / HEMATOCRIT / HEMOGLOBIN / LEUKOCYTE COUNT / LYMPHOCYTE / MEAN CORPUSCULAR HEMOGLOBIN / MEAN CORPUSCULAR HEMOGLOBIN CONCENTRATION / MEAN CORPUSCULAR VOLUME / MONOCYTE / NEUTROPHIL / NUCLEATED RED BLOOD CELLS / PLATELET COUNT: tissue Blood; for ALANINE AMINOTRANSFERASE / ALBUMIN / ALKALINE PHOSPHATASE / ASPARTATE AMINOTRANSFERASE / BLOOD UREA NITROGEN / CARBON DIOXIDE / CHLORIDE / CHOLESTEROL / CREATINE PHOSPHOKINASE / CREATININE / GLUCOSE / LACTATE DEHYDROGENASE / LIPASE / PHOSPHORUS / POTASSIUM / SODIUM / TOTAL BILIRUBIN / TOTAL PROTEIN / URIC ACID: tissue Plasma
[1] = 0 mg/kg, 72 h, dose level Control, time 3 day
[2] = 0 mg/kg, 120 h, dose level Control, time 5 day
[3] = 0 mg/kg, dose level Control, time 28 day
[4] = 56 mg/kg, 72 h, dose level Low, time 3 day

## NC[C@@H]1O[C@H](O[C@H]2[C@@H](O)[C@H](O[C@@H]3[C@@H](O)[C@H](N)C[C@H](N)[C@H]3O[C@H]3O[C@H](CN)[C@@H](O)[C@H](O)[C@H]3N)O[C@@H]2CO)[C@H](N)[C@@H](O)[C@@H]1O [FRAMYCETIN]
[1]
  ABSOLUTE BASOPHIL: 0 CELLS/uL
  ABSOLUTE EOSINOPHIL: 33 CELLS/uL
  ABSOLUTE LYMPHOCYTE: 9048.5 CELLS/uL
  ABSOLUTE MONOCYTE: 80.17 CELLS/uL
  ABSOLUTE SEGMENTED NEUTROPHIL: 1521.67 CELLS/uL
  BASOPHIL: 0%
  EOSINOPHIL: 0.17%
  ERYTHROCYTE COUNT: 5.46 x10E6/uL
  HEMATOCRIT: 32.87%
  HEMOGLOBIN: 12.95 G/DL
  LEUKOCYTE COUNT: 10.68 x10E3/uL
  LYMPHOCYTE: 86.67%
  MEAN CORPUSCULAR HEMOGLOBIN: 23.72 pg
  MEAN CORPUSCULAR HEMOGLOBIN CONCENTRATION: 39.4 G/DL
  MEAN CORPUSCULAR VOLUME: 60.18 fL
  MONOCYTE: 0.83%
  NEUTROPHIL: 12.33%
  NUCLEATED RED BLOOD CELLS: 0 /100WBC
  PLATELET COUNT: 1211.33 x10E3/uL
  ALANINE AMINOTRANSFERASE: 76.67 u/L
  ALBUMIN: 3.93 G/DL
  ALKALINE PHOSPHATASE: 317.17 u/L
  ASPARTATE AMINOTRANSFERASE: 81.17 u/L
  BLOOD UREA NITROGEN: 12.33 mg/dL
  CARBON DIOXIDE: 31.17 mmol/L
  CHLORIDE: 98.33 MEQ/L
  CHOLESTEROL: 67.17 mg/dL
  CREATINE PHOSPHOKINASE: 312.33 u/L
  CREATININE: 0.19 mg/dL
  GLUCOSE: 165.5 mg/dL
  LACTATE DEHYDROGENASE: 94.5 u/L
  LIPASE: 9.83 u/L
  PHOSPHORUS: 10.1 mg/dL
  POTASSIUM: 5.16 MEQ/L
  SODIUM: 143.02 MEQ/L
  TOTAL BILIRUBIN: 0.2 mg/dL
  TOTAL PROTEIN: 5.88 G/DL
  URIC ACID: 0.68 mg/dL
[2]
  ABSOLUTE BASOPHIL: 0 CELLS/uL
  ABSOLUTE EOSINOPHIL: 14.67 CELLS/uL
  ABSOLUTE LYMPHOCYTE: 9629.83 CELLS/uL
  ABSOLUTE MONOCYTE: 72.5 CELLS/uL
  ABSOLUTE SEGMENTED NEUTROPHIL: 1049.67 CELLS/uL
  NUCLEATED RED BLOOD CELLS: 0.17 /100WBC
  CARBON DIOXIDE: 26.4 mmol/L
  LACTATE DEHYDROGENASE: 83.5 u/L
  LIPASE: 85.83 u/L
  URIC ACID: 0.8 mg/dL
[3]
  BASOPHIL: 0.42%
  EOSINOPHIL: 0.58%
  ERYTHROCYTE COUNT: 8.06 x10E6/uL
  HEMATOCRIT: 48.44%
  HEMOGLOBIN: 16.34 G/DL
  LEUKOCYTE COUNT: 13.04 x10E3/uL
  LYMPHOCYTE: 85.12%
  MEAN CORPUSCULAR HEMOGLOBIN: 20.26 pg
  MEAN CORPUSCULAR HEMOGLOBIN CONCENTRATION: 33.74 G/DL
  MEAN CORPUSCULAR VOLUME: 60.1 fL
  MONOCYTE: 1.44%
  NEUTROPHIL: 11.28%
  PLATELET COUNT: 1226 x10E3/uL
  ALANINE AMINOTRANSFERASE: 28.6 u/L
  ALBUMIN: 3.94 G/DL
  ALKALINE PHOSPHATASE: 254.6 u/L
  ASPARTATE AMINOTRANSFERASE: 67.8 u/L
  BLOOD UREA NITROGEN: 10.4 mg/dL
  CHLORIDE: 104.6 MEQ/L
  CHOLESTEROL: 57.6 mg/dL
  CREATINE PHOSPHOKINASE: 224.8 u/L
  CREATININE: 0.4 mg/dL
  GLUCOSE: 140.6 mg/dL
  PHOSPHORUS: 10.66 mg/dL
  POTASSIUM: 6.58 MEQ/L
  SODIUM: 148.6 MEQ/L
  TOTAL BILIRUBIN: 0.24 mg/dL
  TOTAL PROTEIN: 6.64 G/DL
[4]
  ABSOLUTE BASOPHIL: 0 CELLS/uL
  ABSOLUTE EOSINOPHIL: 0 CELLS/uL
  ABSOLUTE LYMPHOCYTE: 8427.33 CELLS/uL
  ABSOLUTE MONOCYTE: 92.67 CELLS/uL
  ABSOLUTE SEGMENTED NEUTROPHIL: 980 CELLS/uL
  BASOPHIL: 0%
  EOSINOPHIL: 0%
  ERYTHROCYTE COUNT: 5.46 x10E6/uL
  HEMATOCRIT: 33.8%
  HEMOGLOBIN: 13.4 G/DL
  LEUKOCYTE COUNT: 9.5 x10E3/uL
  LYMPHOCYTE: 88.67%
  MEAN CORPUSCULAR HEMOGLOBIN: 24.57 pg
  MEAN CORPUSCULAR HEMOGLOBIN CONCENTRATION: 39.63 G/DL
  MEAN CORPUSCULAR VOLUME: 61.9 fL
  MONOCYTE: 1%
  NEUTROPHIL: 10.33%
  NUCLEATED RED BLOOD CELLS: 0 /100WBC
  PLATELET COUNT: 1108.33 x10E3/uL
  ALANINE AMINOTRANSFERASE: 81 u/L
  ALBUMIN: 4.1 G/DL
  ALKALINE PHOSPHATASE: 367.33 u/L
  ASPARTATE AMINOTRANSFERASE: 87 u/L
  BLOOD UREA NITROGEN: 11.67 mg/dL
  CARBON DIOXIDE: 33.33 mmol/L
  CHLORIDE: 97 MEQ/L
  CHOLESTEROL: 89.67 mg/dL
  CREATINE PHOSPHOKINASE: 277.67 u/L
